Test results from the NIST ThermoML archive (doi:10.1021/acs.jced.6b00178).

Test: xn = mol fraction of the nth substance listed
Settings: 100 kPa, Liquid; for viscosity: Concentric cylinders viscometry; for mass density: Vibrating tube method

CCCC[n+]1ccn(C)c1.O=S(=O)([N-]S(=O)(=O)C(F)(F)F)C(F)(F)F + CCCCn1cc[n+](C)c1.F[B-](F)(F)F
Settings	mass density, x1 = 0.25 [kg/m3]	mass density, x1 = 0.498 [kg/m3]	mass density, x1 = 0.751 [kg/m3]	mass density, x1 = 1 [kg/m3]	viscosity, x1 = 0.25 [mPa·s]	viscosity, x1 = 0.498 [mPa·s]	viscosity, x1 = 0.751 [mPa·s]	viscosity, x1 = 1 [mPa·s]
283.15 K	1291.2	1355.8	1409.1	1451.8	200.83	158.06	127.96	106.77
288.15 K	1287.1	1351.4	1404.4	1446.9	149.79	119.67	97.87	82.16
293.15 K	1283.1	1347.1	1399.8	1442.1	114.12	92.47	76.33	64.53
298.15 K	1279.1	1342.8	1395.1	1437.2	88.56	72.77	60.64	51.6
303.15 K	1275.1	1338.5	1390.5	1432.4	69.91	58.24	48.97	41.93
308.15 K	1271.2	1334.2	1386	1427.6	56.12	47.31	40.14	34.59
313.15 K	1267.3	1329.9	1381.5	1422.8	45.7	38.96	33.35	28.91
318.15 K	1263.4	1325.7	1376.9	1418.1	37.72	32.48	28.05	24.46
323.15 K	1259.5	1321.4	1372.4	1413.4	31.52	27.36	23.85	20.91
328.15 K	1255.6	1317.2	1368	1408.7	26.63	23.29	20.48	18.05
333.15 K	1251.8	1313.1	1363.5	1404	22.71	20.02	17.75	15.72
338.15 K	1248	1308.9	1359.1	1399.3	19.58	17.36	15.51	13.8
343.15 K	1244.2	1304.8	1354.8	1394.7	17.02	15.19	13.66	12.2
348.15 K	1240.4	1300.7	1350.4	1390.1	14.91	13.38	12.11	10.86
353.15 K	1236.7	1296.6	1346	1385.5	13.15	11.84	10.81	9.72
358.15 K	1233	1292.6	1341.7	1381	11.66	10.55	9.688	8.754
363.15 K	1229.3	1288.6	1337.5	1376.4	10.42	9.467	8.733	7.926
